Measured values as given in ChEMBL document CHEMBL3785084, “Rational modification of the lead molecule: Enhancement in the anticancer and dihydrofolate reductase inhibitory activity” (Bioorg Med Chem Lett, 2016).

Assays:
Dihydrofolate reductase = biological target: T1, Dihydrofolate reductase (Homo sapiens, UniProt P00374); test: Inhibition of human DHFR assessed as conversion of dihydrofolic acid to tetrahydrfolic acid by enzyme immunoassay in presence of NADPH
T1 sequence (P00374 whole entry): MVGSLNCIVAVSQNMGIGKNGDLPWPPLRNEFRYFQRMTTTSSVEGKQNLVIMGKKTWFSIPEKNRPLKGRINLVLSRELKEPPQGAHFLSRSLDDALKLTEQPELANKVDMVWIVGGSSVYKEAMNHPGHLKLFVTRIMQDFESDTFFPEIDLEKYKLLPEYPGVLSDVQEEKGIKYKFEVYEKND

[1] = Cytotoxicity against human HL-60(TB) cells assessed as cell growth at 10^-5 M after 48 hrs by sulforhodamine B assay; format: functional; settings: HL-60, 48 h, read-out: Activity
A549 = test: Cytotoxicity against human A549 cells assessed as cell growth at 10^-5 M after 48 hrs by sulforhodamine B assay; format: functional; settings: A549, 48 h, read-out: Activity
NCI-H226 = test: Cytotoxicity against human NCI-H226 cells assessed as cell growth at 10^-5 M after 48 hrs by sulforhodamine B assay; format: functional; settings: NCI-H226, 48 h, read-out: Activity
NCI-H460 = test: Cytotoxicity against human NCI-H460 cells assessed as cell growth at 10^-5 M after 48 hrs by sulforhodamine B assay; format: functional; settings: NCI-H460, 48 h, read-out: Activity
[2] = Cytotoxicity against human HCC2998 cells assessed as cell growth at 10^-5 M after 48 hrs by sulforhodamine B assay; format: functional; settings: HCC 2998, 48 h, read-out: Activity
[3] = Cytotoxicity against human HCT15 cells assessed as cell growth at 10^-5 M after 48 hrs by sulforhodamine B assay; format: functional; settings: HCT-15, 48 h, read-out: Activity
KM12 = test: Cytotoxicity against human KM12 cells assessed as cell growth at 10^-5 M after 48 hrs by sulforhodamine B assay; format: functional; settings: KM12, 48 h, read-out: Activity
[4] = Cytotoxicity against human SNB19 cells assessed as cell growth at 10^-5 M after 48 hrs by sulforhodamine B assay; format: functional; settings: SNB-19, 48 h, read-out: Activity
[5] = Cytotoxicity against human LOXIMVI cells assessed as cell growth at 10^-5 M after 48 hrs by sulforhodamine B assay; format: functional; settings: LOX IMVI, read-out: Activity
SK-MEL-2 = test: Cytotoxicity against human SK-MEL-2 cells assessed as cell growth at 10^-5 M after 48 hrs by sulforhodamine B assay; format: functional; settings: SK-MEL-2, 48 h, read-out: Activity
[6] = Cytotoxicity against human UACC257 cells assessed as cell growth at 10^-5 M after 48 hrs by sulforhodamine B assay; format: functional; settings: UACC-257, 48 h, read-out: Activity
[7] = Cytotoxicity against human OVCAR3 cells assessed as cell growth at 10^-5 M after 48 hrs by sulforhodamine B assay; format: functional; settings: OVCAR-3, 48 h, read-out: Activity
[8] = Cytotoxicity against human OVCAR5 cells assessed as cell growth at 10^-5 M after 48 hrs by sulforhodamine B assay; format: functional; settings: OVCAR-5, 48 h, read-out: Activity
[9] = Cytotoxicity against human NCI-ADR-RES cells assessed as cell growth at 10^-5 M after 48 hrs by sulforhodamine B assay; format: functional; settings: read-out: Activity
786-0 = test: Cytotoxicity against human 786-0 cells assessed as cell growth at 10^-5 M after 48 hrs by sulforhodamine B assay; format: functional; settings: 786-0, 48 h, read-out: Activity
[10] = Cytotoxicity against human RXF393 cells assessed as cell growth at 10^-5 M after 48 hrs by sulforhodamine B assay; format: functional; settings: RXF 393, 48 h, read-out: Activity
SN12C = test: Cytotoxicity against human SN12C cells assessed as cell growth at 10^-5 M after 48 hrs by sulforhodamine B assay; format: functional; settings: read-out: Activity
[11] = Cytotoxicity against human PC3 cells assessed as cell growth at 10^-5 M after 48 hrs by sulforhodamine B assay; format: functional; settings: PC-3, 48 h, read-out: Activity

Row | SMILES | IC50 (Dihydrofolate reductase) [µM] | growth at 10 µM [1] [%] | growth at 10 µM (A549) [%] | growth at 10 µM (NCI-H226) [%] | growth at 10 µM (NCI-H460) [%] | growth at 10 µM [2] [%] | growth at 10 µM [3] [%] | growth at 10 µM (KM12) [%] | growth at 10 µM [4] [%] | growth at 10 µM [5] [%] | growth at 10 µM (SK-MEL-2) [%] | growth at 10 µM [6] [%] | growth at 10 µM [7] [%] | growth at 10 µM [8] [%] | growth at 10 µM [9] [%] | growth at 10 µM (786-0) [%] | growth at 10 µM [10] [%] | growth at 10 µM (SN12C) [%] | growth at 10 µM [11] [%]
1 | O=C1NC(=O)C(=Cc2cn(CC(O)Cn3cc(C=C4C(=O)NC(=O)NC4=O)c4ccccc43)c3ccccc23)C(=O)N1 | 5 | 107 | 85.9 | 108 | 55.1 | 94.6 | 103 | 94 | 103 | 98 | 113 | 110 | 109 | 109 | 99.5 | 91.3 | 89.1 | 107 | 93.7
2 | CC1=NN(c2cccc(Cl)c2)C(=O)/C1=C\c1cn(CC(O)Cn2cc(/C=C3\C(=O)N(c4cccc(Cl)c4)N=C3C)c3ccccc32)c2ccccc12 |  | 109 | 94.1 | 109 | 111 | 102 | 106 | 100 | 107 | 102 | 115 | 116 | 102 | 102 | 111 | 110 | 116 | 99.7 | 104
3 | CN1C(=O)C(=Cc2cn(CC(O)Cn3cc(C=C4C(=O)N(C)C(=O)N(C)C4=O)c4ccccc43)c3ccccc23)C(=O)N(C)C1=O | 20 | 107 | 96.8 | 86 | 33.1 | 104 | 105 | 94.3 | 102 | 97 | 118 | 127 | 95.2 | 90.5 | 105 | 100 | 104 | 99.1 | 79.6
